From patent US10251394B2, “Molecules having pesticidal utility, and intermediates, compositions, and processes, related thereto” (Dow AgroSciences LLC, priority 2016, dated 2019)

What was measured:
[1] = tested on: Beet Armyworm (Spodoptera exigua); assay: Bioassay on Beet Armyworm (BAW), 128-well diet tray assay; assay type: in vivo; settings: for pest or weed control at 50 µg/cm2: Beet Armyworm, Table ABC, read-out: BAW rating
Protocol: (§1) Example A: Bioassays on Beet Armyworm (Spodoptera Exigua, LAPHEG) (“BAW”), Corn Earworm (Helicoverpa Zea, HELIZE) (“CEW”), and Cabbage Looper (Trichoplusia Ni, TRIPNI) (“CL”)
(§2) Certain molecules disclosed in this document were tested against BAW, CEW, and CL using procedures described in the following examples. In the reporting of the results, the “BAW, CEW, & CL Rating Table” was used (See Table Section).
Bioassays on BAW were conducted using a 128-well diet tray assay. One to five second instar BAW larvae were placed in each well (3 mL) of the diet tray that had been previously filled with 1 mL of artificial diet to which 50 μg/cm^2 of the test molecule (dissolved in 50 μL of 90:10 acetone-water mixture) had been applied (to each of eight wells) and then allowed to dry. Trays were covered with a clear self-adhesive cover and held at 25° C., 14:10 light-dark for five to seven days. Percent mortality was recorded for the larvae in each well; activity in the eight wells was then averaged. The results are indicated in the table entitled “Table ABC: Biological Results” (See Table Section).
(§3) Bioassays on BAW and CL were conducted according to the procedures outlined in Example A: Bioassays on Beet Armyworm (“BAW”) and Cabbage Looper (“CL”) using the indicated concentrations.

[2] = tested on: Cabbage Looper (Trichoplusia ni); assay: Bioassay on Cabbage Looper (CL), 128-well diet tray assay; assay type: in vivo; settings: for pest or weed control at 50 µg/cm2: Cabbage Looper, Table ABC, read-out: CL rating
Protocol: as §1, §2
Bioassays on CL were conducted using a 128-well diet tray assay. One to five second instar CL larvae were placed in each well (3 mL) of the diet tray that had been previously filled with 1 mL of artificial diet to which 50 μg/cm^2 of the test molecule (dissolved in 50 μL of 90:10 acetone-water mixture) had been applied (to each of eight wells) and then allowed to dry. Trays were covered with a clear self-adhesive cover and held at 25° C., 14:10 light-dark for five to seven days. Percent mortality was recorded for the larvae in each well; activity in the eight wells was then averaged. The results are indicated in the table entitled “Table ABC: Biological Results” (See Table Section).
as §3

Work on C#CCNC(=O)C1(NC(=O)c2ccc(/C(F)=C/C(c3cc(Cl)c(Cl)c(Cl)c3)C(F)(F)F)cc2C(F)(F)F)CC1 (stereo not drawn) [F94, (Z)—N-(1-(Prop-2-yn-1-ylcarbamoyl)cyclopropyl)-4-(1,4,4,4-tetrafluoro-3-(3,4,5-trichlorophenyl)but-1-en-1-yl)-2-(trifluoromethyl)benzamide] yielded a pest or weed control at 50 µg/cm2 [1] of 50 to 100% and a pest or weed control at 50 µg/cm2 [2] of 50 to 100%.

CCNC(=O)[C@@H](C)NC(=O)c1ccc(/C(F)=C/C(c2cc(Cl)c(Cl)c(Cl)c2)C(F)(F)F)cc1C(F)(F)F (stereo partly drawn) [F63, N—((R)-1-(Ethylamino)-1-oxopropan-2-yl)-4-((Z)-1,4,4,4-tetrafluoro-3-(3,4,5-trichlorophenyl)but-1-en-1-yl)-2-(trifluoromethyl)benzamide] was tested, and the pest or weed control at 50 µg/cm2 [1] was 50 to 100% and the pest or weed control at 50 µg/cm2 [2] was 50 to 100%.

With O=C(N[C@@H]1CON(CC(F)(F)F)C1=O)c1ccc(/C(F)=C/C(c2ccc(F)c(C(F)(F)F)c2)C(F)(F)F)cc1C(F)(F)F (stereo partly drawn) [F150, N—((R)-3-Oxo-2-(2,2,2-trifluoroethyl)isoxazolidin-4-yl)-4-((2)-1,4,4,4-tetrafluoro-3-(4-fluoro-3-(trifluoromethyl)phenyl)but-1-en-1-yl)-2-(trifluoromethyl)benzamide] the pest or weed control at 50 µg/cm2 [1] was 50 to 100% and the pest or weed control at 50 µg/cm2 [2] was 50 to 100%.

Work on CC(F)(F)C(/C=C(\F)c1ccc(C(=O)NCC(=O)NCC(F)(F)F)c(C(F)(F)F)c1)c1cc(Cl)c(Cl)c(Cl)c1 (stereo not drawn) [F62, (Z)—N-(2-Oxo-2-((2,2,2-trifluoroethyl)amino)ethyl)-4-(1,4,4-trifluoro-3-(3,4,5-trichlorophenyl)pent-1-en-1-yl)-2-(trifluoromethyl)benzamide] yielded a pest or weed control at 50 µg/cm2 [1] of 50 to 100% and a pest or weed control at 50 µg/cm2 [2] of 50 to 100%.

Work on CC(NC(=O)CNC(=O)c1ccc(/C(F)=C/C(c2cc(Cl)c(Cl)c(Cl)c2)C(F)(F)F)cc1Cl)C(F)(F)F (stereo not drawn) [F66, (Z)-2-Chloro-N-(2-oxo-2-((1,1,1-trifluoropropan-2-yl)amino)ethyl)-4-(1,4,4,4-tetrafluoro-3-(3,4,5-trichlorophenyl)but-1-en-1-yl)benzamide] yielded a pest or weed control at 50 µg/cm2 [1] of 50 to 100% and a pest or weed control at 50 µg/cm2 [2] of 50 to 100%.

Molecule O=C(CNC(=O)c1ccc(/C(F)=C/C(c2ccc(Br)c(Br)c2)C(F)(F)F)cc1C(F)(F)F)NCC(F)(F)F (stereo not drawn) [F107, (Z)-4-(3-(3,4-Dibromophenyl)-1,4,4,4-tetrafluorobut-1-en-1-yl)-N-(2-oxo-2-((2,2,2-trifluoroethyl)amino)ethyl)-2-(trifluoromethyl)benzamide] has a pest or weed control at 50 µg/cm2 [1] of 50 to 100% and a pest or weed control at 50 µg/cm2 [2] of 50 to 100%.

Molecule CN(CC(F)(F)F)C(=O)CNC(=O)c1ccc(/C(F)=C/C(c2cc(Cl)cc(C(F)(F)F)c2)C(F)(F)F)cc1C(F)(F)F (stereo not drawn) [PF41, (Z)-4-(3-(3-Chloro-5-(trifluoromethyl)phenyl)-1,4,4,4-tetrafluorobut-1-en-1-yl)-N-(2-(methyl(2,2,2-trifluoroethyl)amino)-2-oxoethyl)-2-(trifluoromethyl)benzamide] has a pest or weed control at 50 µg/cm2 [1] of 50 to 100% and a pest or weed control at 50 µg/cm2 [2] of 50 to 100%.

O=C(NC1(C(=O)NCCCC(F)(F)F)CC1)c1ccc(/C(F)=C/C(c2cc(Cl)c(Cl)c(Cl)c2)C(F)(F)F)cc1C(F)(F)F (stereo not drawn) [F89, (Z)-4-(1,4,4,4-Tetrafluoro-3-(3,4,5-trichlorophenyl)but-1-en-1-yl)-N-(1-((4,4,4-trifluorobutyl)carbamoyl)cyclopropyl)-2-(trifluoromethyl)benzamide] showed a pest or weed control at 50 µg/cm2 [1] of 50 to 100% and a pest or weed control at 50 µg/cm2 [2] of 50 to 100%.

In the case of CC(C)CCNC(=O)C1(NC(=O)c2ccc(/C(F)=C/C(c3cc(Cl)c(Cl)c(Cl)c3)C(F)(F)F)cc2C(F)(F)F)CC1 (stereo not drawn) [F91, (Z)—N-(1-(Isopentylcarbamoyl)cyclopropyl)-4-(1,4,4,4-tetrafluoro-3-(3,4,5-trichlorophenyl)but-1-en-1-yl)-2-(trifluoromethyl)benzamide], the pest or weed control at 50 µg/cm2 [1] is reported as 50 to 100% and the pest or weed control at 50 µg/cm2 [2] is reported as 50 to 100%.

C[C@@H](NC(=O)c1ccc(/C(F)=C/C(c2cc(Cl)cc(OCC(F)(F)F)c2)C(F)(F)F)cc1C(F)(F)F)C(=O)NCC(F)(F)F (stereo partly drawn) [F207, 4-((Z)-3-(3-chloro-5-(2,2,2-trifluoroethoxy)phenyl)-1,4,4,4-tetrafluorobut-1-en-1-yl)-N—((R)-1-oxo-1-((2,2,2-trifluoroethyl)amino)propan-2-yl)-2-(trifluoromethyl)benzamide] was tested, and the pest or weed control at 50 µg/cm2 [1] was 50 to 100% and the pest or weed control at 50 µg/cm2 [2] was 50 to 100%.

O=C(N[C@@H]1CON(CC(F)(F)F)C1=O)c1ccc(/C(F)=C/C(c2cc(Cl)cc(CC(F)(F)F)c2)C(F)(F)F)cc1C(F)(F)F (stereo partly drawn) [F178, 4-((Z)-3-(3-Chloro-5-(2,2,2-trifluoroethyl)phenyl)-1,4,4,4-tetrafluorobut-1-en-1-yl)-N—((R)-3-oxo-2-(2,2,2-trifluoroethyl)isoxazolidin-4-yl)-2-(trifluoromethyl)benzamide] gave a pest or weed control at 50 µg/cm2 [1] of 50 to 100% and a pest or weed control at 50 µg/cm2 [2] of 50 to 100%.

Molecule C[C@@H](NC(=O)c1ccc(/C(F)=C/C(c2cc(Cl)c(Cl)c(Cl)c2)C(F)(F)F)cc1Cl)C(=O)N(C)CC(F)(F)F (stereo partly drawn) [F49, 2-Chloro-N—((R)-1-(methyl(2,2,2-trifluoroethyl)amino)-1-oxopropan-2-yl)-4-((Z)-1,4,4,4-tetrafluoro-3-(3,4,5-trichlorophenyl)but-1-en-1-yl)benzamide] has a pest or weed control at 50 µg/cm2 [1] of 50 to 100% and a pest or weed control at 50 µg/cm2 [2] of 50 to 100%.

C[C@@H](NC(=O)c1ccc(/C(F)=C/C(c2cc(Cl)c(Cl)c(Cl)c2)C(F)(F)F)cc1I)C(=O)NCC(F)(F)F (stereo partly drawn) [F67, 2-Iodo-N—((R)-1-oxo-1-((2,2,2-trifluoroethyl)amino)propan-2-yl)-4-((Z)-1,4,4,4-tetrafluoro-3-(3,4,5-trichlorophenyl)but-1-en-1-yl)benzamide] was tested, and the mortality at 0.05 µg/cm2 ([1]; 168 h, 0.05 μg/cm^2 on artificial diet, second instar larvae, five to seven days, read-out: BAW Percent control (or mortality)) was 100%, the mortality at 0.5 µg/cm2 ([1]; 168 h, 0.5 μg/cm^2 on artificial diet, second instar larvae, five to seven days, read-out: BAW Percent control (or mortality)) was 100% and the mortality at 5 µg/cm2 ([1]; 168 h, 5 μg/cm^2 on artificial diet, second instar larvae, five to seven days, read-out: BAW Percent control (or mortality)) was 100%. For the same molecule, the pest or weed control at 50 µg/cm2 [1] was 50 to 100%, the mortality at 0.05 µg/cm2 ([2]; 168 h, 0.05 μg/cm^2 on artificial diet, second instar larvae, five to seven days, read-out: CL Percent control (or mortality)) was 100% and the mortality at 0.5 µg/cm2 ([2]; 168 h, 0.5 μg/cm^2 on artificial diet, second instar larvae, five to seven days, read-out: CL Percent control (or mortality)) was 100%. It also gave a mortality at 5 µg/cm2 ([2]; 168 h, 5 μg/cm^2 on artificial diet, second instar larvae, five to seven days, read-out: CL Percent control (or mortality)) of 100% and a pest or weed control at 50 µg/cm2 [2] of 50 to 100%.

C[C@@H](NC(=O)c1ccc(/C(F)=C/C(c2cc(Cl)c(Cl)c(Cl)c2)C(F)(F)F)cc1C(F)(F)F)C(=O)N(CC(F)(F)F)NC(=O)OC(C)(C)C (stereo partly drawn) [F55, tert-Butyl 2-((2R)-2-(4-((Z)-1,4,4,4-tetrafluoro-3-(3,4,5-trichlorophenyl)but-1-en-1-yl)-2-(trifluoromethyl)benzamido)propanoyl)-2-(2,2,2-trifluoroethyl)hydrazinecarboxylate] was tested, and the pest or weed control at 50 µg/cm2 [1] was 50 to 100% and the pest or weed control at 50 µg/cm2 [2] was 50 to 100%.

O=C(NC1(C(=O)NCC(F)F)CC1)c1ccc(/C(F)=C/C(c2cc(Cl)c(Cl)c(Cl)c2)C(F)(F)F)cc1C(F)(F)F (stereo not drawn) [F95, (Z)—N-(1-((2,2-Difluoroethyl)carbamoyl)cyclopropyl)-4-(1,4,4,4-tetrafluoro-3-(3,4,5-trichlorophenyl)but-1-en-1-yl)-2-(trifluoromethyl)benzamide] showed a pest or weed control at 50 µg/cm2 [1] of 50 to 100% and a pest or weed control at 50 µg/cm2 [2] of 50 to 100%.

CN(CC(F)(F)F)C(=O)C1(NC(=O)c2ccc(/C(F)=C/C(c3cc(Cl)cc(C(F)(F)F)c3)C(F)(F)F)cc2C(F)(F)F)CC1 (stereo not drawn) [PF45, (Z)-4-(3-(3-Chloro-5-(trifluoromethyl)phenyl)-1,4,4,4-tetrafluorobut-1-en-1-yl)-N-(1-(methyl(2,2,2-trifluoroethyl)carbamoyl)cyclopropyl)-2-(trifluoromethyl)benzamide] gave a pest or weed control at 50 µg/cm2 [1] of 50 to 100% and a pest or weed control at 50 µg/cm2 [2] of 50 to 100%.

With O=C(N[C@@H]1CON(CC(F)(F)F)C1=O)c1ccc(/C(F)=C/C(c2cc(Cl)c(Cl)c(C(F)F)c2)C(F)(F)F)cc1C(F)(F)F (stereo partly drawn) [F199, 4-((Z)-3-(3,4-Dichloro-5-(difluoromethyl)phenyl)-1,4,4,4-tetrafluoro-but-1-enyl)-N—((R)-3-oxo-2-(2,2,2-trifluoroethyl)isoxazolidin-4-yl)-2-(trifluoromethyl)benzamide] the pest or weed control at 50 µg/cm2 [1] was 50 to 100% and the pest or weed control at 50 µg/cm2 [2] was 50 to 100%.

C[C@@H](NC(=O)c1ccc(/C(F)=C/C(c2cc(Cl)c(Cl)c(Cl)c2)C(F)(F)F)cc1C(F)(F)F)C(=S)NCC(F)(F)F (stereo partly drawn) [PF96, 4-((2)-1,4,4,4-Tetrafluoro-3-(3,4,5-trichlorophenyl)but-1-en-1-yl)-N—((R)-1-thioxo-1-((2,2,2-trifluoroethyl)amino)propan-2-yl)-2-(trifluoromethyl)benzamide] was tested, and the pest or weed control at 50 µg/cm2 [1] was 50 to 100% and the pest or weed control at 50 µg/cm2 [2] was 50 to 100%.
